Laboratory results as given in US20240002846A1, “COMPOSITIONS AND METHODS FOR THE DIAGNOSIS AND TREATMENT OF ITCH” (Duke University, priority 2020, published 2024).
Entries after “also recorded” stand apart in the source; their conditions may differ.

What was measured:
hTRPV4 = molecular target: T1, hTRPV4 (Homo sapiens, UniProt Q9HBA0); assay: Single-channel recordings of hTRPV4 in HEK293 cells; assay type: biochemical; conditions: +60 mV; 100 nM GSK101 or 5 μM LPC 18:1
T1 construct: expressed in transfected cells; host or cells: HEK293 (ATCC CRL-1573)
T1 sequence (Q9HBA0 whole entry): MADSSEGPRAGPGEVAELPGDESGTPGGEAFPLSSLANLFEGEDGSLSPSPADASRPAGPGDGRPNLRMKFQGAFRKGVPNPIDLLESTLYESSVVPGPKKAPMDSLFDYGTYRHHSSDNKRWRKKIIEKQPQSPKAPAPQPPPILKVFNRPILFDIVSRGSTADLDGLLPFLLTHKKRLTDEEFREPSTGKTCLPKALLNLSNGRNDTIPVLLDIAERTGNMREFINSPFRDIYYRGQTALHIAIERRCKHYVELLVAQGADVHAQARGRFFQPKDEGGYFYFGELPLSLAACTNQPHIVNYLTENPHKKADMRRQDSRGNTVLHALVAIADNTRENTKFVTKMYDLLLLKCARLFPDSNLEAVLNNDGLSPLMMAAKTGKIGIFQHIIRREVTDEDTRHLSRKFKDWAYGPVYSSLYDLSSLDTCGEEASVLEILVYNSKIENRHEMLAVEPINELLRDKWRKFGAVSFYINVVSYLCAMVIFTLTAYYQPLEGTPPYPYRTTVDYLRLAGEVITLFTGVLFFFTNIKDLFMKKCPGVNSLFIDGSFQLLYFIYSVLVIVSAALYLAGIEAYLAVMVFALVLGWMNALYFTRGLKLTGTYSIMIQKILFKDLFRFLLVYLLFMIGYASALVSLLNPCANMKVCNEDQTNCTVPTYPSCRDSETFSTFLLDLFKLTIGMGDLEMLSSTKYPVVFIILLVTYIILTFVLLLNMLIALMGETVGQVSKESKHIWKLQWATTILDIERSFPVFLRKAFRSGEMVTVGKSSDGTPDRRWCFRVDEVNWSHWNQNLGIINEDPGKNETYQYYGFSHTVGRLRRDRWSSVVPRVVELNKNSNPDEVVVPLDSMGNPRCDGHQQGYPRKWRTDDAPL
Procedure: Cell culture and transfection. HEK293 cells (ATCC® CRL-1573) were cultured on poly-D-lysine coated coverslips in 24-well plate containing DMEM media with high-Glucose (Gibco, Gaithersburg, MD) supplemented with 10% fetal bovine serum (FBS, HyClone Laboratories, Logan, UT) and 100 U/mL of penicillin/streptomycin (Gibco, Gaithersburg, MD). Cell cultures were maintained with 5% of CO2 in a humidified incubator at 37° C. HEK cells were transfected with rat or human wild type or mutant TRPV4 channels with EGFP or YFP coupled to their C-termini (1.5 μg of plasmid for excised patch clamp and Ca^2+ imaging and 200 ng for single-channel experiments). The jetPEI™ Polyplus transfection reagent (Polyplus Transfection, New York, NY) for electrophysiology or Lipofectamine™ 2000 Reagent (Invitrogen, Waltham, MA) for Ca^2+ imaging were used for transfections per manufacturer's instructions as previously described (Chen et al. Pain 2014, 155, 2662-2672; Morales-Lazaro et al. Nat. Commun. 2016, 7, 13092). To investigate whether miR-146a can directly activate TRPV1 channels or indirectly via TLRs, HEK293 cells were transfected with rTRPV1 or co-transfected rTRPV1 with rTLR7, rTLR2, or rTLR6 (Addgene, Watertown, MA) for Ca^2+ imaging assay. Control cells were transfected with GFP or YFP.
For single-channel recordings, Borosilicate glass […]) pipettes were used. Recordings were obtained at +60 mV by acquiring several traces of 1-3 s duration. The effect of GSK1016790A or LPC 18:1 on single TRPV4 channels was studied in inside-out. Currents were filtered at 2 kHz and sampled at 5 kHz. […] Single-channel openings and closures were identified with the half-threshold crossing technique (Morales-Lazaro et al. Nat. Commun. 2016, 7, 13092). The channel open probability was calculated as the sum of the total open time divided by the sweep duration. Dwell times and amplitude histograms in the closed or open states were collected in logarithmic time histograms according to the Sine-Sigworth transformation (Sigworth et al. Biophys. J. 1987, 52, 1047-1054). Sums of three or two exponential components were fitted to histograms using a least-squares algorithm.

[1] = tested on: extracellular release of miR-146a; assay: Extracellular release of miRs from cultured mouse keratinocytes (RT-qPCR); assay type: cell-based; conditions: mouse keratinocytes
Procedure: Primary mouse keratinocytes were cultured following previous protocol (Chen et al. J. Biol. Chem. 2016, 291, 10252-10262). The epidermis from the back skin of newborn WT or keratinocyte-Trpv4 cKO mice was separated from the dermis by floating the skin on 0.25% trypsin (Gibco, Gaithersburg, MD) for 14-18 h at 4° C. Basal keratinocytes were separated from the cornified sheets by filtration through a […] cell strainer. Keratinocytes were plated on collagen I-coated dishes or glass coverslips and grown in EME media (Gibco, Gaithersburg, MD) containing 8% chelex (Bio-rad, Hercules, CA)-treated FBS with the final Ca^2+ adjusted to 0.05 mM, bovine pituitary extract (50 μg/mL), epidermal growth factor (5 ng/mL), and lx antibiotics/antimycotics (Gibco, Gaithersburg, MD) in a humidified incubator with 5% CO2 at 37° C. for 5-7 days until use. To knockdown Trpv4 in isolated keratinocytes from newborn keratinocyte-Trpv4 cKO mice, cells were treated with 4-OH tamoxifen at 500 nM for 72 h.
Measurement of released vesicles and extracellular miR-146a from cultured keratinocytes or sera Medium for the cultured keratinocytes was replaced with serum-free medium 2 h before LPC stimulation. […] Finally, cell-free supernatants were further purified using a Vesicular Isolation kit (Invitrogen, Waltham, MA) according to the manufacturer's instructions, with final product resuspended in ice-cold PBS. Total RNA extraction was then carried out using a Total RNA Isolation kit (Invitrogen, Waltham, MA). Enrichment for small RNAs was carried out by sequential increase in ethanol concentration and passing through glass-fiber filters. RNase free water was used to elute small RNAs in the final elution step. For human PBC sera or sera from ANIT-treated mice, RNA was isolated using Qiagen miRNeasy Plasma/Serum kit. cDNA synthesis from extracted RNAs was performed according to manufacturer's instructions (qSTAR miRNA kit, Origene). For qPCR, the stem-loop oligonucleotides specific for the following miRs are as follows: miR-146a-5p (GAGAACTGAATTCCATGGG, SEQ ID NO: 4), miR-let-7b (GAGGTAGTAGGTTGTGTGG, SEQ ID NO: 5), miR-125b-1 (CCCT GAGACCCTAACTTG, SEQ ID NO: 6), miR-203 (GTGGTTC TTGACAGTTCAAC, SEQ ID NO: 7), and miR-16-5p (AGCAGCAC GTAAATATTGGC, SEQ ID NO: 8). Primers were purchased from Integrated DNA Technologies company (Coralville, IA). qPCR reactions for each sample were run in triplicates, including no-template controls. MiR-16-5p was selected as a control due to the relative constancy of its expression in various cultured cell lines (Schwarzenbach et al. Clin. Chem. 2015, 61, 1333-1342). qPCR for this miR was performed in tandem with target miRs to determine the optimal normalization procedure. To investigate the effects of the specific TRPV4 inhibitors GSK205 or HC067047 and the specific MEK inhibitor U0126 on LPC-induced extracellular release of miR-146a, cells were incubated with the inhibitors for 15 min before stimulation. Control cells received the same volume of vehicle.
Vesicular release from cultured keratinocytes was quantified by detecting acetylcholinesterase (AChE) activity in the extracellular release fluid. (Gupta et al. Am. J. Physiol. Heart Circ. Physiol. 2007, 292, H3052-3056; Malik et al. Methods Mol. Biol. 2016, 1448, 237-248). CBQCA Protein Quantitation Kit (Molecular Probes, Eugene, OR) was used to assess the total protein amounts of each sample. Quantitation was carried out according to kit instructions (Fluorocet, Systems Biosciences, Palo Alto, CA). Briefly, vesicles were lysed to release esterase enzyme whose activity is measured using a florescence dye, excitation at 544 nm and emission at 590 nm. Fluostar Optima (BMG Labtech, Cary, NC) microplate reader was used to measure esterase activity. 500 ng protein equivalent of input was used per well. […]

LPC 18:1
open level (single-channel) amplitude (hTRPV4): 3.27±0.41 pA | open probability (Po) (hTRPV4): 0.75±0.08 | single channel conductance (gi) (hTRPV4): 54.5 pS

Cc1c(C(=O)Nc2cccc(C(F)(F)F)c2)cc(-c2ccccc2)n1CCCN1CCOCC1 [HC067047]
effect of TRPV4 inhibitors on LPC-induced release of miR-146a ([1]; inhibitor 10 μM): completely eliminated

N#CC(=C(/N)Sc1ccccc1N)/C(C#N)=C(\N)Sc1ccccc1N [U0126]
effect of MEK inhibitor on LPC-induced release of miR-146a ([1]; 10 μM): eliminated; also recorded: abolished
